Test results reported in US8192854B2, “Microbial fuel cell treatment of ethanol fermentation process water” (priority 2009, dated 2012).

Tested on: inhibitor-consuming microbial consortium in a microbial fuel cell (MFC-A)
Assay: Effect of inhibitor concentration on electricity production, air-cathode MFC
Details: 0.1 g/L to 2 g/L (20.8 mM)
Description: After confirmation of electricity production from individual inhibitor molecules, the effect of inhibitor concentration on their removal and electricity production was studied. The experiments were conducted by adding each of the substrates individually, at the various concentrations to study substrate inhibition. From day 51 to 62, HB was used as the energy source for the MFC at concentrations from 0.1 to 1 g/L. From day 63 to day 82, 2-furfural was used as the energy source at a concentration from 0.05 to 2 g/L. From day 83 to day 101, VA was used as the substrate from 0.05 to 4 g/L, followed by use of HMF as substrate from day 129 to day 150 at a concentration from 0.2 to 2 g/L. The MFC was operated with 2-furfural as the substrate between day 102 to 128. Effect of acetate was studied in MFC-B up to a concentration of 10 g/L. The voltage output was monitored at each concentration for a period of up to five days. The effect of 2-furfural on electricity production was studied at a concentration from 0.1 g/L to 2 g/L (20.8 mM) using an air-cathode MFC. […] It should be noted that the substrate utilization was limited by the cathode side in an air-cathode MFC used in this study. […] The effect of acetate concentration was also studied in a different MFC (MFC-B) using a consortium enriched on acetate.

Compound: O=Cc1ccco1 [2-furfural]
- inhibition of electricity production: No inhibition
